According to the supplement of paper PMC13380429:

Legend:
Details in all cases: 72 h
Vero E6 [1] = experiment: relative viability EC50 (midpoint between 100% and the lowest measured viability); higher = less toxic
Caco-2 [2] = experiment: as above
U2OS [3] = experiment: as above
HepG2 [4] = experiment: as above
Calu-3 [5] = experiment: as above
Vero E6 [6] = experiment: drug sensitivity score (DSS) for viability; higher = more toxic; extreme values may be limits of the assay
Caco-2 [7] = experiment: as above
U2OS [8] = experiment: as above
HepG2 [9] = experiment: as above
Calu-3 [10] = experiment: as above
Vero E6 [11] = experiment: cell viability relative to DMSO; higher = less toxic
Caco-2 [12] = experiment: as above
U2OS [13] = experiment: as above
HepG2 [14] = experiment: as above
Calu-3 [15] = experiment: as above

Row | SMILES | relative viability EC50 (Vero E6 [1]) | relative viability EC50 (Caco-2 [2]) | relative viability EC50 (U2OS [3]) | relative viability EC50 (HepG2 [4]) | relative viability EC50 (Calu-3 [5]) | drug sensitivity score (Vero E6 [6]) | drug sensitivity score (Caco-2 [7]) | drug sensitivity score (U2OS [8]) | drug sensitivity score (HepG2 [9]) | drug sensitivity score (Calu-3 [10]) | cell viability (Vero E6 [11]; 1 nM) | cell viability (Vero E6 [11]; 10 nM) | cell viability (Vero E6 [11]; 100 nM) | cell viability (Vero E6 [11]; 1000 nM) | cell viability (Vero E6 [11]; 10000 nM) | cell viability (Caco-2 [12]; 1 nM) | cell viability (Caco-2 [12]; 10 nM) | cell viability (Caco-2 [12]; 100 nM) | cell viability (Caco-2 [12]; 1000 nM) | cell viability (Caco-2 [12]; 10000 nM) | cell viability (U2OS [13]; 1 nM) | cell viability (U2OS [13]; 10 nM) | cell viability (U2OS [13]; 100 nM) | cell viability (U2OS [13]; 1000 nM) | cell viability (U2OS [13]; 10000 nM) | cell viability (HepG2 [14]; 1 nM) | cell viability (HepG2 [14]; 10 nM) | cell viability (HepG2 [14]; 100 nM) | cell viability (HepG2 [14]; 1000 nM) | cell viability (HepG2 [14]; 10000 nM) | cell viability (Calu-3 [15]; 1 nM) | cell viability (Calu-3 [15]; 10 nM) | cell viability (Calu-3 [15]; 100 nM) | cell viability (Calu-3 [15]; 1000 nM) | cell viability (Calu-3 [15]; 10000 nM)
1 | O=C(O)c1ccc(-c2c[nH]c3ncc(-c4ccccc4)cc23)cc1C1CCCC1 | > 10 µM | > 10 µM | > 10 µM | > 10 µM | > 10 µM | 0 | 0 | 0 | 1.1 | 0 | 109% | 106% | 104% | 97% | 101% | 92.8% | 107% | 101% | 105% | 93.5% | 96.4% | 94.9% | 90.4% | 97.3% | 85.8% | 103% | 100% | 107% | 89.6% | 84.2% | 98.8% | 92.9% | 97.6% | 107% | 107%
2 | O=C1c2cccnc2OC[C@@H]2CCCN12 | > 10 µM | > 10 µM | > 10 µM | > 10 µM | > 10 µM | 0 | 0 | 0 | 0 | 0 | 93.8% | 98.5% | 90.5% | 91% | 103% | 108% | 99.6% | 100% | 95.6% | 100% | 103% | 98.6% | 95.9% | 97.7% | 96.4% | 96.9% | 98.8% | 96.1% | 102% | 99.2% | 103% | 87.1% | 98.9% | 101% | 91.1%
3 | Oc1cc2c(c(Cl)c1O)CCNCC2c1ccccc1 (centres undefined) | > 10 µM | > 10 µM | > 10 µM | > 10 µM | > 10 µM | 0 | 0 | 0 | 0.1 | 0 | 104% | 106% | 103% | 104% | 98.6% | 99.2% | 94.9% | 85.4% | 90.9% | 95.5% | 100% | 97% | 102% | 97.8% | 104% | 93.2% | 100% | 100% | 103% | 86.8% | 95.1% | 106% | 97.7% | 106% | 91.1%
4 | Oc1ccc2[nH]cc(C3=CCNCC3)c2n1 | > 10 µM | > 10 µM | > 10 µM | > 10 µM | > 10 µM | 0 | 0 | 0 | 0 | 0 | 105% | 91.2% | 99.4% | 97% | 102% | 79.9% | 95.6% | 97% | 98.1% | 100% | 94.8% | 100% | 97.1% | 106% | 105% | 107% | 106% | 97.6% | 89.1% | 100% | 100% | 92.6% | 105% | 104% | 102%
5 | O[C@@H]1[C@H](O)[C@@H](CCl)O[C@H]1n1cnc2c(NC3CC4CCC3C4)ncnc21 (mixture of isomers) [5'-chloro-5'-deoxy-ENBA-(+/-)] | > 10 µM | > 10 µM | > 10 µM | > 10 µM | > 10 µM | 0 | 0.4 | 0 | 0.2 | 0 | 96.7% | 97.2% | 94.3% | 91.9% | 91.5% | 98.8% | 99.6% | 99.2% | 97.2% | 86.1% | 104% | 100% | 99.3% | 104% | 97.6% | 96% | 99.6% | 96.2% | 99.5% | 85.4% | 99.1% | 98% | 93.3% | 94.8% | 90.2%
6 | N[C@@H](Cc1ccc(Cl)cc1)C(=O)O (racemic) [fenclonine-(+/-)] | > 10 µM | > 10 µM | > 10 µM | > 10 µM | > 10 µM | 0 | 0 | 0 | 0 | 0 | 110% | 106% | 105% | 98.6% | 102% | 94% | 102% | 97.9% | 97.5% | 93.2% | 93.6% | 101% | 96.4% | 102% | 97.2% | 103% | 107% | 101% | 93.7% | 100% | 98.1% | 101% | 97.7% | 96.4% | 97.1%
7 | CCOC(=O)CCNc1cc(N2CCc3ccccc3CC2)nc(-c2ccccn2)n1 [GSK-J4] |  | 1.28 µM | 2.74 µM | 3.45 µM | 2.93 µM | 2.3 | 8.6 | 6 | 3.4 | 4.7 | 93.9% | 101% | 91.7% | 96.8% | 63.2% | 93.2% | 88.2% | 104% | 70.9% | 17.4% | 97.8% | 97.6% | 99.3% | 94.8% | 5.5% | 103% | 103% | 97.8% | 104% | 33.5% | 103% | 89.5% | 96.5% | 97.5% | 21.2%
8 | CN(C)CCCNC(=O)c1ccc(-c2cc(O)c3ncccc3c2)cc1 [ML324] |  | > 10 µM | > 10 µM | 3.52 µM | > 10 µM | 2 | 1.4 | 0.4 | 3.2 | 0.9 | 98.5% | 100% | 96.2% | 101% | 58.1% | 107% | 94.3% | 107% | 91.7% | 80.6% | 105% | 98.9% | 107% | 98.5% | 85% | 88.7% | 103% | 88.2% | 104% | 35.7% | 105% | 93.8% | 106% | 94.1% | 83.4%
9 | CC1(C)CCC[C@]2(C)[C@H]3CC(=O)O[C@]3(C)CC[C@@H]12 [Sclareolide (Norambreinolide)] |  | > 10 µM | > 10 µM | > 10 µM | > 10 µM |  | 0 | 0 | 0 | 0 |  |  |  |  |  | 95.7% | 96.6% | 92.7% | 102% | 88.5% | 100% | 100% | 97% | 99.5% | 99.5% | 106% | 99.1% | 108% | 101% | 100% | 100% | 104% | 99.4% | 107% | 87.6%
10 | CN(C)CCCO[C@@H]1[C@H]2OC(C)(C)O[C@H]2O[C@@H]1[C@H](O)CO [amiprilose] |  | > 10 µM | > 10 µM | > 10 µM | > 10 µM |  | 0 | 0 | 0.2 | 0 |  |  |  |  |  | 107% | 86.8% | 101% | 95.1% | 97.3% | 102% | 99.8% | 100% | 103% | 101% | 91.3% | 102% | 97.3% | 99.6% | 85.8% | 98.7% | 102% | 98% | 101% | 100%
11 | CCCC(=O)OCOC(=O)C1=C(C)NC(C)=C(C(=O)OC)C1c1cccc(Cl)c1Cl (centres undefined) [cleviprex] |  | > 10 µM | > 10 µM | > 10 µM | > 10 µM |  | 0.1 | 0 | 0 | 0 |  |  |  |  |  | 97.6% | 109% | 99.1% | 102% | 87% | 98.8% | 104% | 100% | 107% | 95.3% | 97.9% | 97.8% | 110% | 111% | 99.8% | 101% | 92% | 105% | 108% | 118%
12 | N[C@H](Cc1c[nH]cn1)C(=O)O [copper-histidine] |  | > 10 µM | > 10 µM | > 10 µM | > 10 µM |  | 0 | 0 | 0 | 0.1 |  |  |  |  |  | 106% | 102% | 107% | 98.8% | 107% | 101% | 96.1% | 95.8% | 97.3% | 97.3% | 110% | 98.7% | 103% | 104% | 89.3% | 105% | 94.4% | 84.8% | 82.1% | 99.5%
13 | Nc1nc(=O)[nH]cc1F [flucytosine] |  | > 10 µM | > 10 µM | > 10 µM | > 10 µM |  | 0 | 0 | 0 | 0 |  |  |  |  |  | 97.6% | 94% | 100% | 96.5% | 92.9% | 98.6% | 99.2% | 102% | 97.9% | 104% | 101% | 110% | 97.6% | 109% | 110% | 87.6% | 102% | 99.9% | 91.1% | 111%
14 | CCCCCCCCCCCCOCCOCCOCCOCCOCCOCCOCCOCCOCCO [polidocanol] | > 10 µM |  | > 10 µM | 3.8 µM | > 10 µM | 0 | 1 | 0 | 3.3 | 0 | 99.5% | 89.7% | 104% | 108% | 116% | 85.7% | 105% | 99.9% | 108% | 69.7% | 91.5% | 103% | 95.4% | 101% | 90.4% | 105% | 98.5% | 124% | 111% | 28.9% | 106% | 105% | 99.6% | 106% | 91.5%
15 | Cc1ncc(CSSCc2cnc(C)c(O)c2CO)c(CO)c1O [pyritinol] |  | > 10 µM | > 10 µM | > 10 µM | > 10 µM |  | 0 | 0 | 0 | 0 |  |  |  |  |  | 99.8% | 87.4% | 94.5% | 100% | 92.7% | 103% | 100% | 96.6% | 101% | 98.3% | 90% | 97.7% | 108% | 95.8% | 97.8% | 96.1% | 105% | 94.4% | 99.2% | 105%
16 | Clc1ccc(CSC(Cn2ccnc2)c2ccc(Cl)cc2Cl)cc1 (centres undefined) [sulconazole] | > 10 µM |  | > 10 µM | > 10 µM | > 10 µM | 0 | 2.7 | 0 | 0 | 0 | 106% | 104% | 104% | 95.4% | 94.6% | 99.5% | 92.7% | 97.3% | 94% | 63.5% | 97.5% | 101% | 96% | 101% | 93.7% | 86.9% | 87.4% | 102% | 99.1% | 98.1% | 107% | 95.5% | 102% | 110% | 96.7%
